Test results from PubChem BioAssay (NCI).
Values joined by “and” are separate entries in the source; they are usually repeats but may differ in a detail not shown here. Equal entries are not always repeated.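 Exposure lasted 48 hours, with cells grown in 96-well plates and compounds tested at five concentrations. At the TGI there is no net growth.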

Experiments:
Assay in all cases: NCI anticancer screen, dose series, 48 h
DU-145 prostate = system: DU-145 prostate
786-0 renal = system: 786-0 renal
SF-268 CNS = system: SF-268 CNS
MOLT-4 leukemia = system: MOLT-4 leukemia
SK-MEL-2 melanoma = system: SK-MEL-2 melanoma
EKVX NSCLC = system: EKVX NSCLC
BT-549 breast = system: BT-549 breast
HL-60(TB) leukemia = system: HL-60(TB) leukemia
HOP-62 NSCLC = system: HOP-62 NSCLC
NCI-H522 lung = system: NCI-H522 lung
SW-620 colon = system: SW-620 colon
ACHN renal = system: ACHN renal
SF-295 CNS = system: SF-295 CNS
NCI/ADR-RES ovarian = system: NCI/ADR-RES ovarian
SK-OV-3 ovarian = system: SK-OV-3 ovarian
SNB-19 CNS = system: SNB-19 CNS
MDA-MB-435 = system: MDA-MB-435
A549 NSCLC = system: A549 NSCLC
MDA-MB-231 breast = system: MDA-MB-231 breast
CCRF-CEM leukemia = system: CCRF-CEM leukemia
SK-MEL-28 melanoma = system: SK-MEL-28 melanoma
MCF7 breast = system: MCF7 breast
MDA-N = system: MDA-N
HT29 colon = system: HT29 colon
RXF 393 renal = system: RXF 393 renal
TK-10 renal = system: TK-10 renal
OVCAR-3 ovarian = system: OVCAR-3 ovarian
COLO 205 colon = system: COLO 205 colon
HS 578T breast = system: HS 578T breast
K-562 leukemia = system: K-562 leukemia
OVCAR-5 ovarian = system: OVCAR-5 ovarian
NCI-H23 lung = system: NCI-H23 lung
RPMI-8226 leukemia = system: RPMI-8226 leukemia
HCT-15 colon = system: HCT-15 colon
OVCAR-4 ovarian = system: OVCAR-4 ovarian
HCC-2998 colon = system: HCC-2998 colon
IGROV1 ovarian = system: IGROV1 ovarian
UACC-257 melanoma = system: UACC-257 melanoma
NCI-H460 lung = system: NCI-H460 lung
SF-539 CNS = system: SF-539 CNS
KM12 colon = system: KM12 colon
LOX IMVI melanoma = system: LOX IMVI melanoma
CAKI-1 renal = system: CAKI-1 renal
PC-3 prostate = system: PC-3 prostate
UACC-62 melanoma = system: UACC-62 melanoma
HOP-92 NSCLC = system: HOP-92 NSCLC
SN12C renal = system: SN12C renal
UO-31 renal = system: UO-31 renal
SR leukemia = system: SR leukemia
MALME-3M melanoma = system: MALME-3M melanoma
SK-MEL-5 melanoma = system: SK-MEL-5 melanoma
A498 renal = system: A498 renal
OVCAR-8 ovarian = system: OVCAR-8 ovarian
T-47D breast = system: T-47D breast
M14 melanoma = system: M14 melanoma
U251 CNS = system: U251 CNS
NCI-H226 lung = system: NCI-H226 lung
HCT-116 colon = system: HCT-116 colon
SNB-75 CNS = system: SNB-75 CNS

Measured: TGI

CCC(C)C1=C(O)[N+]2([O-])Oc3ccc(-c4c(O)c(O)c(-c5ccc(OC(C)=O)cc5)c(OC(C)=O)c4OC(C)=O)cc3OC2(C(C)CC)C(=O)N1O (stereo not given)
49.1 µM and > 50 µM: K-562 leukemia
41.5 µM: HCC-2998 colon
41.4 µM and 46.7 µM: OVCAR-4 ovarian
not listed: NCI-H226 lung | HCT-116 colon | SNB-75 CNS
> 50 µM: all other assays above

O=C(Nc1ccc(S(=O)(=O)/N=c2\ncccn2C(=O)C(C(F)(F)F)C(F)(F)F)cc1)C(C(F)(F)F)C(F)(F)F
0.242 µM: CAKI-1 renal
not listed: BT-549 breast | SW-620 colon | HOP-92 NSCLC | UO-31 renal | SR leukemia
> 100 µM: all other assays above
